Source: US11324728B2, “Dosing regimens for the treatment of fungal infections” (Seren Pharmaceuticals Inc., priority 2017, dated 2022)

Columns and labels:
[1] = Safety: adverse events and laboratory tests; format: in vivo, human
Experimental: (§1) A Phase II clinical pharmacology study was conducted in subjects with onychomycosis of the toenail. The study investigated the pharmacokinetics, efficacy and safety of three different dosing regimens of fosravuconazole. […] The three treatment groups were as follows: • a.
The safety endpoints were: (1) adverse events (AEs); (2) adverse reactions; and (3) laboratory tests.

fungal elements = test: Mycological cure: search for fungal elements by direct microscopy; format: in vivo, human; conditions: PPS
Experimental: as §1
The efficacy endpoints were: (1) overall clinical efficacy; (2) changes over time in efficacy; (3) confirmation of elements of dermatophytes by direct microscopy; and (4) results of identification of dermatophytes by the polymerase chain reaction (PCR) method.
At screening, fungal elements were found by direct microscopy in all treatment groups.

Trichophyton rubrum = test: Overall clinical evaluation by identified species; format: in vivo; conditions: Week 48
Experimental: as §1

Trichophyton species = test: Overall clinical evaluation by identified species; format: in vivo; conditions: 200 mg, Week 48
Experimental: as §1

[2] = tested on: Trichophyton mentagrophytes; test: Overall clinical evaluation by identified species; format: in vivo; conditions: Week 48
Experimental: as §1

## C[C@@H](c1nc(-c2ccc(C#N)cc2)cs1)[C@@](Cn1cncn1)(OCOP(=O)(O)O)c1ccc(F)cc1F [fosravuconazole, 4-[2-[(1R,2R)-2-(2,4-difluorophenyl)-1-methyl-2-[(phosphonooxy)methoxy]-3-(1H-1,2,4-triazol-1-yl)propyl]-4-thiazolyl]benzo-nitrile]
[1]; 100 mg (once daily dose) group
  AEs resulting in discontinuation of the study treatment: 1 subject
  AST or ALT elevated to Grade 2 after the start of study treatment: 2 subjects
  Moderate AEs: 3 subjects
  incidence of AEs: 89.7%
  new AE derived from fungal infection: no new AE derived from fungal infection
[1]; 200 mg (pulse treatment) group
  AST or ALT elevated to Grade 2 after the start of study treatment: 1 subject
  Moderate AEs: 12 subjects
  incidence of AEs: 64.5%
[1]; 400 mg (pulse treatment) group
  AEs resulting in discontinuation of the study treatment: 4 subjects
  AST or ALT elevated to Grade 2 after the start of study treatment: 1 subject
  Moderate AEs: 12 subjects
  incidence of AEs: 85.3%
  tinea pedis: 2 subjects
[1]; all dosing groups
  tolerability: well-tolerated
[1]; any of the treatment groups
  death or other serious AEs: No death or other serious AEs occurred
[1]; in total, all groups
  AST or ALT elevated to Grade 2 after the start of study treatment: 4 subjects
Fungal elements; 100 mg group, At screening
  Absence of fungal elements by direct microscopy (%): (0.0) %
  Absence of fungal elements by direct microscopy, subjects: 0
  Presence of fungal elements by direct microscopy (%): (100.0) %
  Presence of fungal elements by direct microscopy, subjects: 28
Fungal elements; 100 mg group, Week 12
  Absence of fungal elements by direct microscopy (%): (33.3) %
  Absence of fungal elements by direct microscopy, subjects: 9
  Presence of fungal elements by direct microscopy (%): (16.7) %
  Presence of fungal elements by direct microscopy, subjects: 18
Fungal elements; 100 mg group, Week 24
  Absence of fungal elements by direct microscopy (%): (48.0) %
  Absence of fungal elements by direct microscopy, subjects: 12
  Presence of fungal elements by direct microscopy (%): (52.0) %
  Presence of fungal elements by direct microscopy, subjects: 13
Fungal elements; 100 mg group, Week 48
  Absence of fungal elements by direct microscopy, subjects: 18
  Presence of fungal elements by direct microscopy (%): (28.0) %
  Presence of fungal elements by direct microscopy, subjects: 7
Fungal elements; 200 mg group, At screening
  Absence of fungal elements by direct microscopy (%): (0.0) %
  Absence of fungal elements by direct microscopy, subjects: 0
  Presence of fungal elements by direct microscopy (%): (100.0) %
  Presence of fungal elements by direct microscopy, subjects: 27
Fungal elements; 200 mg group, Week 12
  Absence of fungal elements by direct microscopy (%): (50.0) %
  Absence of fungal elements by direct microscopy, subjects: 13
  Presence of fungal elements by direct microscopy (%): (50.0) %
  Presence of fungal elements by direct microscopy, subjects: 13
Fungal elements; 200 mg group, Week 24
  Absence of fungal elements by direct microscopy (%): (48.0) %
  Absence of fungal elements by direct microscopy, subjects: 12
  Presence of fungal elements by direct microscopy (%): (52.0) %
  Presence of fungal elements by direct microscopy, subjects: 13
Fungal elements; 200 mg group, Week 48
  Absence of fungal elements by direct microscopy, subjects: 8
  Presence of fungal elements by direct microscopy (%): (63.6) %
  Presence of fungal elements by direct microscopy, subjects: 14
Fungal elements; 400 mg group, At screening
  Absence of fungal elements by direct microscopy (%): (0.0) %
  Absence of fungal elements by direct microscopy, subjects: 0
  Presence of fungal elements by direct microscopy (%): (100.0) %
  Presence of fungal elements by direct microscopy, subjects: 33
Fungal elements; 400 mg group, Week 12
  Absence of fungal elements by direct microscopy (%): (19.4) %
  Absence of fungal elements by direct microscopy, subjects: 6
  Presence of fungal elements by direct microscopy (%): (80.6) %
  Presence of fungal elements by direct microscopy, subjects: 25
Fungal elements; 400 mg group, Week 24
  Absence of fungal elements by direct microscopy (%): (45.2) %
  Absence of fungal elements by direct microscopy, subjects: 14
  Presence of fungal elements by direct microscopy (%): (54.8) %
  Presence of fungal elements by direct microscopy, subjects: 17
Fungal elements; 400 mg group, Week 48
  Absence of fungal elements by direct microscopy, subjects: 17
  Presence of fungal elements by direct microscopy (%): (37.0) %
  Presence of fungal elements by direct microscopy, subjects: 10
Trichophyton rubrum; 100 mg
  Cure rate and 95% CI: 47.6 %
  Cured: 10
  Failed: 0
  Improved: 1
  Markedly improved: 10
  Slightly improved: 0
Trichophyton rubrum; 200 mg
  Cure rate and 95% CI: 31.6 %
  Cured: 6
  Failed: 0
  Improved: 2
  Markedly improved: 11
  Slightly improved: 0
Trichophyton rubrum; 400 mg
  Cure rate and 95% CI: 44.0 %
  Cured: 11
  Failed: 0
  Improved: 4
  Markedly improved: 10
  Slightly improved: 0
Trichophyton species
  Cure rate and 95% CI: 0.0 %
  Cured: 0
  Failed: 0
  Improved: 0
  Markedly improved: 1
  Slightly improved: 0
[2]; 100 mg
  Cure rate and 95% CI: 0.0 %
  Cured: 0
  Failed: 0
  Improved: 0
  Markedly improved: 4
  Slightly improved: 0
[2]; 200 mg
  Cure rate and 95% CI: 0.0 %
  Cured: 0
  Failed: 0
  Improved: 2
  Markedly improved: 0
  Slightly improved: 0
[2]; 400 mg
  Cure rate and 95% CI: 0.0 %
  Cured: 0
  Failed: 0
  Improved: 0
  Markedly improved: 2
  Slightly improved: 0
